“And” between values parts separate entries of the source, which are not always exact repeats. Identical values can stand only once.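 Each compound was tested at five concentrations against cells in 96-well plates for 48 hours. GI50 is the concentration that inhibits growth by half. At the TGI there is no net growth.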
Experiments:
Experiment in all cases: growth of human tumour cells (NCI), 48 h
A498 renal = system: A498 renal
BT-549 breast = system: BT-549 breast
EKVX NSCLC = system: EKVX NSCLC
HT29 colon = system: HT29 colon
LOX IMVI melanoma = system: LOX IMVI melanoma
MDA-MB-231 breast = system: MDA-MB-231 breast
OVCAR-4 ovarian = system: OVCAR-4 ovarian
OVCAR-5 ovarian = system: OVCAR-5 ovarian
SK-OV-3 ovarian = system: SK-OV-3 ovarian
SR leukemia = system: SR leukemia

SMILES	TGI (A498 renal)	TGI (BT-549 breast) [µM]	TGI (EKVX NSCLC) [µM]	TGI (HT29 colon) [µM]	TGI (LOX IMVI melanoma) [µM]	TGI (MDA-MB-231 breast) [µM]	TGI (OVCAR-4 ovarian) [µM]	TGI (OVCAR-5 ovarian)	TGI (SK-OV-3 ovarian) [µM]	TGI (SR leukemia) [µM]	GI50 (A498 renal)	GI50 (HT29 colon)	GI50 (OVCAR-5 ovarian)
N#Cc1nc(-c2ccccn2)c(-c2ccccn2)nc1C#N	8.19 µM	12.1	15.7	14.4	> 27.5	> 53	12.3	10 µM	7.26	> 33.9	–	–	–
COc1ccc(C2CCc3c(cnc4nc(N)nc(N)c34)C2)cc1 (stereo not drawn)	> 100 µM	> 100	> 100	> 100	> 100	> 100	> 100	> 100 µM	50.1	> 100	–	–	–
NC(=O)c1ccc(S(=O)(=NS(=O)(=O)c2ccccc2)c2ccc(C(N)=O)cc2)cc1	> 100 µM	> 100	> 100	> 100	> 100	> 100	> 100	> 100 µM	> 100	> 100	–	–	–
COc1nc2ncc([C@@H](O)[C@H](O)CO)nc2c(=O)[nH]1	> 100 µM	> 100	> 100	> 100	> 100	> 100	> 100	> 100 µM	> 100	> 100	–	–	–
COc1ccc2c(-c3csc(-c4c[nH]c5ccccc45)n3)c[nH]c2c1	21.6 µM	> 100	13.3	7.32	> 31.9	> 37.6	69.8	> 50.7 µM	42.7	> 100	–	–	–
COc1ccc(C2=C(N)c3cc(OC)ccc3C2=O)cc1	> 100 µM	> 100	> 100	> 100	> 100	> 100	> 100	> 100 µM	> 100	> 100	–	–	–
Cc1cc(C)c(N)c(CO)c1	0.231 µM and 0.409 µM	> 100	> 100	> 100	> 100	> 100	> 100	6.61 µM and 19 µM	> 100	> 100	0.0675 µM and 0.183 µM	12.5 µM and 38.2 µM	1.17 µM and 4.31 µM
CCOC(=O)C1=C(C)N(c2ccc(Cl)cc2)C2(O)C=CC(=O)C3C(=O)N(c4ccccc4)C(=O)C132 (stereo not drawn)	3.22 µM	5.8	4.38	3.18	3.69	4.59	3.25	4.15 µM	8.27	1.14	–	–	–
O=C1CCc2c(sc3ncnc(Nc4cccc(Br)c4)c23)C1	31.4 µM	13.9	12.4	27	12.9	11.5	8.63	23.4 µM	20.1	7.82	–	–	–
CSC(=N/N=C(\C)c1ccc(S(=O)(=O)N(C)c2ccccc2)cc1)SC	> 100 µM	> 100	> 100	> 100	> 100	> 100	> 100	> 100 µM	> 100	> 100	–	–	–
CCOC(=O)/C=C/C(Br)=C(Br)/C=C/C(=O)OCC	74.3 µM	12.4	36.2	29.1	7.44	31.1	34.8	34.9 µM	47.8	34.4	–	–	–
CC(=O)N1C(=O)/C(=C\C(=O)c2ccc(Cl)cc2)c2ccccc21	69.3 µM	18.4	36.2	20.7	5.9	30.3	35.9	48.4 µM	59.9	6.51	–	–	–
Cc1cnc2[nH]c(-c3sccc3C)cc(=O)c2c1	> 100 µM	> 100	> 100	10.3	> 100	> 100	> 100	> 100 µM	> 100	> 100	–	–	–
CC(C)c1cc(C(C)C)c(B(c2ccccc2)c2ccccc2)c(C(C)C)c1Br	> 100 µM	> 100	> 100	> 100	> 100	> 100	> 100	> 100 µM	> 100	> 100	–	–	–
CC(=O)c1c2c(cc3c1CCC3)CCC2	> 100 µM	> 100	> 100	> 100	> 100	> 100	> 100	> 100 µM	> 100	> 100	–	–	–
O=C1/C(=C/Cc2ccco2)N=C(c2ccccc2)N1c1nc2c(Cl)cc(Cl)cc2s1	43.4 µM	83.5	76.2	98.2	> 100	82.2	75.6	> 100 µM	> 100	38.7	–	–	–
C[C@@H]1CC(=O)[C@@]2(C)[C@](O)(CCC3O[C@]32C)[C@@]12CC(c1ccoc1)OC2=O (stereo partly drawn)	> 100 µM	> 100	> 100	> 100	> 100	> 100	> 100	> 100 µM	> 100	68.5	–	–	–
Cc1nc2ccccc2nc1N1CCCC1	> 100 µM	> 100	> 100	> 100	> 100	> 100	> 100	> 100 µM	> 100	> 100	–	–	–

Reference: PubChem BioAssay (NCI)
